Measured values as given in ChEMBL document CHEMBL1155474, “8-THP-DHI analogs as potent Type I dual TIE-2/VEGF-R2 receptor tyrosine kinase inhibitors” (Bioorg Med Chem Lett, 2010).
Calls of active or inactive are those of the source. The rule behind the calls is not given here.

What was measured:
[1] = Inhibition of PKC at 3 uM
Angiopoietin-1 receptor = Angiopoietin-1 receptor (Homo sapiens, UniProt Q02763); test: Inhibition of human recombinant TIE-2 by time resolved fluorescence measurements
[2] = target: T1, Vascular endothelial growth factor receptor 2 (Homo sapiens, UniProt P35968); test: Inhibition of human recombinant VEGFR2 by time resolved fluorescence measurements
T1 sequence (P35968 whole entry): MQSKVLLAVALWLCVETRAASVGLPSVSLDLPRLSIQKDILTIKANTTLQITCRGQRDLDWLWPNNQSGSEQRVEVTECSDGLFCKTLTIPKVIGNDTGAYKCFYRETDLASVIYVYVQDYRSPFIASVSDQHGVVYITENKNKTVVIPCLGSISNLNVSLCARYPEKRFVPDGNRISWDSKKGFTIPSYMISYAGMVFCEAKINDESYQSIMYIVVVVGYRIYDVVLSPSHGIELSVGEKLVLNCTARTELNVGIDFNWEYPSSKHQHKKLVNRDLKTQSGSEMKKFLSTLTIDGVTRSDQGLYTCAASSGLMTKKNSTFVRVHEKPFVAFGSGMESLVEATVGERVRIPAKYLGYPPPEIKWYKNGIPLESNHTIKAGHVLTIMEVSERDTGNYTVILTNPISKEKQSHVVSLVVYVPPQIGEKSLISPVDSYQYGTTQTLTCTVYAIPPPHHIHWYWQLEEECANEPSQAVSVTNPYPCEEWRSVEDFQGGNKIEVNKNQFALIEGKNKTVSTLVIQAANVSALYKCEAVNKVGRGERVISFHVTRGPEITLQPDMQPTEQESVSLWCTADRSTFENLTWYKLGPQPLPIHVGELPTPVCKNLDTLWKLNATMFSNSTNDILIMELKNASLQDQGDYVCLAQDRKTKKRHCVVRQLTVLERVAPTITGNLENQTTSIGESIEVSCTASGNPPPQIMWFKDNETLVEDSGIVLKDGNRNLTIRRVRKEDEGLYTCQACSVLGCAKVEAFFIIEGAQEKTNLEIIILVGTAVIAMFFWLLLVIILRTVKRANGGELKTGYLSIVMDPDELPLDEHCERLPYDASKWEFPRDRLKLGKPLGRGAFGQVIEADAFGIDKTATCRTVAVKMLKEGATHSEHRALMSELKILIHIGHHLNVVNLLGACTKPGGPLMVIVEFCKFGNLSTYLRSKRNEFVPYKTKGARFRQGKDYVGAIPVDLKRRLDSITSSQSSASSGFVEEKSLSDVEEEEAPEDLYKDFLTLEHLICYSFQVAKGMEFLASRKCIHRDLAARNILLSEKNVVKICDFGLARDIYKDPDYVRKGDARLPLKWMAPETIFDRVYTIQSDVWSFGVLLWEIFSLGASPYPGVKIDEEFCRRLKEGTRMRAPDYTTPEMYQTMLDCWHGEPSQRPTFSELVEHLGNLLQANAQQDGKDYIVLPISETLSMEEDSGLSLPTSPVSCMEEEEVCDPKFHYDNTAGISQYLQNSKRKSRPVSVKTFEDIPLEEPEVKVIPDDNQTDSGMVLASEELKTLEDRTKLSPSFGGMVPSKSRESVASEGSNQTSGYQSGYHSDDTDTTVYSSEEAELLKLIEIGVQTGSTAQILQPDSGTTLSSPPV

[3] = target: T1, Vascular endothelial growth factor receptor 2; test: Inhibition of VEGF-stimulated VEGFR2 autophosphorylation in HUVEC
[4] = Terminal half life in rat at 1 mg/kg, iv; assay type: ADME, organism-based; set-up: dose 1 mg/kg, route intravenous; details: in vivo, read-out: beta t1/2 (converted)
[5] = Clearance in rat at 1 mg/kg, iv; assay type: ADME, organism-based; set-up: dose 1 mg/kg, route intravenous; details: in vivo
[6] = AUC (0 to infinity) in rat at 1 mg/kg, iv; assay type: ADME, organism-based; set-up: time infinity, dose 1 mg/kg, route intravenous; details: plasma
[7] = Volume of distribution in rat at 1 mg/kg, iv; assay type: ADME, organism-based; set-up: dose 1 mg/kg, route intravenous; details: in vivo
[8] = Oral bioavailability in rat at 10 mg/kg; assay type: ADME, organism-based; details: in vivo
[9] = Terminal half life in rat at 10 mg/kg, po; assay type: ADME, organism-based; set-up: dose 10 mg/kg, route oral; details: in vivo, read-out: beta t1/2 (converted)
[10] = AUC (0 to infinity) in rat at 10 mg/kg, po; assay type: ADME, organism-based; set-up: time infinity, dose 10 mg/kg, route oral; details: plasma
[11] = Cmax in rat at 10 mg/kg, po; assay type: ADME, organism-based; set-up: dose 10 mg/kg, route oral; details: in vivo
[12] = Metabolic stability in rat liver S9 fraction; assay type: ADME, subcellular
[13] = Inhibition of cytochrome P450
[14] = target: Tyrosine-protein kinase Lyn (Homo sapiens) (UniProt P07948); test: Inhibition of Lyn at 3 uM
[15] = target: Platelet-derived growth factor receptor beta (Homo sapiens) (UniProt P09619); test: Inhibition of PDGFRbeta at 3 uM
[16] = target: Fibroblast growth factor receptor 3 (Homo sapiens) (UniProt P22607); test: Inhibition of FGFR3 at 3 uM
[17] = target: Tyrosine-protein kinase Lck (Homo sapiens) (UniProt P06239); test: Inhibition of LCK at 3 uM
[18] = target: Tyrosine-protein kinase Fyn (Homo sapiens) (UniProt P06241); test: Inhibition of Fyn at 3 uM
Tyrosine-protein kinase Fyn (Homo sapiens), sequence (P06241 2-537 limits assumed): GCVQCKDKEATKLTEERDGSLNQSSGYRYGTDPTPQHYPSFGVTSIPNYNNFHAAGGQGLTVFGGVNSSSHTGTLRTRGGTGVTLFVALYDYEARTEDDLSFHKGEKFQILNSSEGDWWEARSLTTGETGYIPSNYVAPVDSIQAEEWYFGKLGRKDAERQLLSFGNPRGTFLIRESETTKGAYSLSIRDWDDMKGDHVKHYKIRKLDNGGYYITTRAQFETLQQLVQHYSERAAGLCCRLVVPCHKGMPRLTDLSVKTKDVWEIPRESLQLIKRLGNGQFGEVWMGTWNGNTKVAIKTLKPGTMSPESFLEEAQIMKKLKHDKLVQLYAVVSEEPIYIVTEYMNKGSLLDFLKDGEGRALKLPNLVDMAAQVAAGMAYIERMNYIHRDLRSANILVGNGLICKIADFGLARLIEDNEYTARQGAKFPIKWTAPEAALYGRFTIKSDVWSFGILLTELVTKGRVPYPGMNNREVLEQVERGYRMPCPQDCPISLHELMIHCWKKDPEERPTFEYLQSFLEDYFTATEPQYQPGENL

[19] = target: Tyrosine-protein kinase Yes (Homo sapiens) (UniProt P07947); test: Inhibition of YES at 3 uM
Tyrosine-protein kinase Yes (Homo sapiens), sequence (P07947 2-543 limits assumed): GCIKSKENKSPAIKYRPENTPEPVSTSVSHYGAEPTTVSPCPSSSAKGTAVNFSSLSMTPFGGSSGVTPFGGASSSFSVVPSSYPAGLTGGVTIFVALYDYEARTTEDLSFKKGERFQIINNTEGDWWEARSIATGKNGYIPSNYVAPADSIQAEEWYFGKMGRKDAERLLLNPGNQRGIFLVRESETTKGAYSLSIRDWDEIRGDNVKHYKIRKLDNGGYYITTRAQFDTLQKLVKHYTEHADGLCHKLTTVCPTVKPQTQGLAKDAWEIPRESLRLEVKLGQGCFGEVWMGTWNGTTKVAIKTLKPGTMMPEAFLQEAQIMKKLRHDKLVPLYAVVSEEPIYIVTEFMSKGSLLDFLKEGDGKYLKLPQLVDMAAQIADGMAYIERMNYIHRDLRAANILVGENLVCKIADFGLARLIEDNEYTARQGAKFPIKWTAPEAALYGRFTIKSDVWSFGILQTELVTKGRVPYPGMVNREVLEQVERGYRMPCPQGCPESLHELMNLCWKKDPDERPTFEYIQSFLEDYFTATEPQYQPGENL

[20] = target: Tyrosine-protein kinase Blk (Homo sapiens) (UniProt P51451); test: Inhibition of Blk at 3 uM
Tyrosine-protein kinase Blk (Homo sapiens), sequence (P51451 2-505 limits assumed): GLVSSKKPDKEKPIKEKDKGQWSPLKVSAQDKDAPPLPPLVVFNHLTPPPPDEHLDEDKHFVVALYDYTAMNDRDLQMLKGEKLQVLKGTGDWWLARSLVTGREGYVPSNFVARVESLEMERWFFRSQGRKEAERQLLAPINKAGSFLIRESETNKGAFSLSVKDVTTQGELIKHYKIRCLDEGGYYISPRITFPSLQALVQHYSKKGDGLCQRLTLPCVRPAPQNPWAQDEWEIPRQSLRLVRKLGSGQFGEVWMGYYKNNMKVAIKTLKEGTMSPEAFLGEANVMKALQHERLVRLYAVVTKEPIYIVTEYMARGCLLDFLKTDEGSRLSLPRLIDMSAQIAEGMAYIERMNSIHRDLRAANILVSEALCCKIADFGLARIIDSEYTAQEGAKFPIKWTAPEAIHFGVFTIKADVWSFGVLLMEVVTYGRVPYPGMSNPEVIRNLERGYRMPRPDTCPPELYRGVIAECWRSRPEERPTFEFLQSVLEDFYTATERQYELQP

[21] = target: Epidermal growth factor receptor (Homo sapiens, UniProt P00533); test: Inhibition of EGFR
Insulin receptor = Insulin receptor (Homo sapiens, UniProt P06213); test: Inhibition of insulin receptor
[22] = Inhibition of CDK at 3 uM
[23] = target: T2, Serine/threonine-protein kinase Chk1 (Homo sapiens) (UniProt O14757); test: Inhibition of CHK1 at 3 uM
T2 sequence (whole entry): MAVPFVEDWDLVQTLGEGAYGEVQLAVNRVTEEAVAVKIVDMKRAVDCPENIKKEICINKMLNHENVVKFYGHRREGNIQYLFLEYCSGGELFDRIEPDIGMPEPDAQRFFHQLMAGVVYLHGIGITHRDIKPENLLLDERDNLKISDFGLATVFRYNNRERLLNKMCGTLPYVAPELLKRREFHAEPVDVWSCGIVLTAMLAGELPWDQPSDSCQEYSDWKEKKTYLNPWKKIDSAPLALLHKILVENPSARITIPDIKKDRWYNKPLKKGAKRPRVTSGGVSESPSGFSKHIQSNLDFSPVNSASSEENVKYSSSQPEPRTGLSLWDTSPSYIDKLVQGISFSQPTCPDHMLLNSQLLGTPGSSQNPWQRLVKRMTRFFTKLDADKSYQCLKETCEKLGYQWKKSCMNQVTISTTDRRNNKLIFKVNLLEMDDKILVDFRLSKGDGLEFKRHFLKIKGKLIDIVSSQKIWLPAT

[24] = target: Glycogen synthase kinase-3 beta (Homo sapiens) (UniProt P49841); test: Inhibition of GSK3-beta at 3 uM
Glycogen synthase kinase-3 beta (Homo sapiens), sequence (P49841 whole entry, looked up): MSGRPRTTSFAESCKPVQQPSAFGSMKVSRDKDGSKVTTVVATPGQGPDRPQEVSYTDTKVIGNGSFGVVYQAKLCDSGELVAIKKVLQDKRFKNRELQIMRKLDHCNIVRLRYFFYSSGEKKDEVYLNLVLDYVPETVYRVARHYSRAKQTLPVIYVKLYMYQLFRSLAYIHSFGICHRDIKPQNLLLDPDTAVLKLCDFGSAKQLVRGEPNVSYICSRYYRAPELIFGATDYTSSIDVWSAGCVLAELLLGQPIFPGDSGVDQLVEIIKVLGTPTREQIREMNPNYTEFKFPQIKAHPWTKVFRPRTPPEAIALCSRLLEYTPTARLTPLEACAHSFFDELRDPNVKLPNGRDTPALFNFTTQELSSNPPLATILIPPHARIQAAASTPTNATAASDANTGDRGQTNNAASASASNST

[25] = Inhibition of JNK at 3 uM
[26] = Inhibition of MAPK at 3 uM
[27] = target: Dual specificity mitogen-activated protein kinase kinase 1 (Homo sapiens) (UniProt Q02750); test: Inhibition of MEK1 at 3 uM
[28] = target: Vascular endothelial growth factor receptor 1 (Homo sapiens, UniProt P17948); test: Inhibition of VEGFR1 at 3 uM
[29] = target: Vascular endothelial growth factor receptor 3 (Homo sapiens, UniProt P35916); test: Inhibition of VEGFR3 at 3 uM
Vascular endothelial growth factor receptor 3, sequence (P35916 whole entry): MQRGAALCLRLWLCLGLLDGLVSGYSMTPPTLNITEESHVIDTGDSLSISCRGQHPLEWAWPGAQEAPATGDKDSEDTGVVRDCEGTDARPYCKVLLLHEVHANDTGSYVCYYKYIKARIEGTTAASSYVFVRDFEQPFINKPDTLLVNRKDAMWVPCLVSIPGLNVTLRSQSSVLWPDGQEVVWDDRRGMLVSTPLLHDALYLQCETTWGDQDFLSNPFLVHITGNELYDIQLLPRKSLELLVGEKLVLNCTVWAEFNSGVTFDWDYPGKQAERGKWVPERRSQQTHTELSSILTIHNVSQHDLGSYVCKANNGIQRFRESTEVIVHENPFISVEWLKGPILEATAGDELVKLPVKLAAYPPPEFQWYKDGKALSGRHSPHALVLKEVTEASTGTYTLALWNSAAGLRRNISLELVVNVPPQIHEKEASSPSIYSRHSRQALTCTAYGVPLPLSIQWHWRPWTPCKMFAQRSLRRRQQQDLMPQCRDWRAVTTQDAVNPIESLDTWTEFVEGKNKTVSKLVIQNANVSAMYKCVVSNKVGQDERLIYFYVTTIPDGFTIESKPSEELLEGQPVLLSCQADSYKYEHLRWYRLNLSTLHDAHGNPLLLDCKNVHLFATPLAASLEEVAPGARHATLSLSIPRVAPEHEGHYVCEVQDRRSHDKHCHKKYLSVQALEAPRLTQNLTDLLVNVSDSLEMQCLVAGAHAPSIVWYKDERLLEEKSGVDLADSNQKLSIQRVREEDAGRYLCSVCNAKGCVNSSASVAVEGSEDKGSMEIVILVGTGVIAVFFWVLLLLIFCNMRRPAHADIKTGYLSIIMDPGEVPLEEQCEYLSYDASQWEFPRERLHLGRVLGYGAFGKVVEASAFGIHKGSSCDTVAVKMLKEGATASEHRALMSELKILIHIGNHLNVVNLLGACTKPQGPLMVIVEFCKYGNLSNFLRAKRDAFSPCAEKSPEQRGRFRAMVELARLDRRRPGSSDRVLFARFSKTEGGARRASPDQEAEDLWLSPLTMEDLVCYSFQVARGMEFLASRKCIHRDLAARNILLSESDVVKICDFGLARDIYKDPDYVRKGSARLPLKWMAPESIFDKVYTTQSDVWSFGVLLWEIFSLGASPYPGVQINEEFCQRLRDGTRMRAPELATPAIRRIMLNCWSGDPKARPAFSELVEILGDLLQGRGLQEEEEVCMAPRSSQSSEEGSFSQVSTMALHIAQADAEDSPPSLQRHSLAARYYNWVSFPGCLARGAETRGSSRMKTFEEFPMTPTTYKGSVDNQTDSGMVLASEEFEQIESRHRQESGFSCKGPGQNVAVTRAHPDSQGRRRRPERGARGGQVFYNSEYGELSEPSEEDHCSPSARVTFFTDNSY

Aorta = test: Ex vivo antiangiogenic activity in rat aortic ring assessed as inhibition of VEGF-stimulated microvessel growth; assay type: functional, tissue-based
HUVEC [30] = test: Inhibition of capillary tube formation in HUVEC; assay type: functional, cell-based; details: Homo sapiens
HUVEC [31] = test: Cytotoxicity against HUVEC; assay type: cell-based; details: human
SVR [32] = test: Antitumor activity against mouse SVR cells xenografted in nude mouse assessed as tumor inhibition at 1 mg/kg, po bid administered after 4 days tumor implantation for 10 days; assay type: functional
SVR [33] = test: Antitumor activity against mouse SVR cells xenografted in nude mouse assessed as tumor inhibition at 3 mg/kg, po bid administered after 4 days tumor implantation for 10 days; assay type: functional
SVR [34] = test: Antitumor activity against mouse SVR cells xenografted in nude mouse assessed as tumor regressions at 3 mg/kg, po bid administered after 4 days tumor implantation for 10 days; assay type: functional
[35] = Plasma concentration in mouse SVR cells xenografted in nude mouse at 3 mg/kg, po bid administered after 4 days tumor implantation for 10 days measured after 2 hrs post dose; assay type: ADME, organism-based; set-up: dose 3 mg/kg, route oral
[36] = Plasma concentration in mouse SVR cells xenografted in nude mouse at 1 mg/kg, po bid administered after 4 days tumor implantation for 10 days measured after 2 hrs post dose; assay type: ADME, organism-based; set-up: dose 1 mg/kg, route oral
SVR [37] = test: Antitumor activity against mouse SVR cells xenografted in nude mouse assessed as partial tumor regressions at 1 mg/kg, po bid administered after 4 days tumor implantation for 10 days; assay type: functional
SVR [38] = test: Antitumor activity against mouse SVR cells xenografted in nude mouse assessed as complete tumor regressions at 1 mg/kg, po bid administered after 4 days tumor implantation for 10 days; assay type: functional

**Q.** With `CCCCn1c2ccc(C3CCCCO3)cc2c2c3c(c4c(c21)CCc1nn(C)cc1-4)C(=O)NC3` (racemic) as the compound, how does the inhibition [1] read?
**A.** inactive

**Q.** What about the IC50 (Angiopoietin-1 receptor) of the same compound?
**A.** 10 nM

**Q.** And the IC50 [2]?
**A.** 24 nM

**Q.** And the IC50 [3]?
**A.** 10 nM

**Q.** And the half-life [4]?
**A.** 1.5 h

**Q.** And the clearance [5]?
**A.** 15 mL/min/kg

**Q.** And the AUC(0-inf) [6]?
**A.** 1160 ng·h/mL

**Q.** What about the Vd [7] of the same compound?
**A.** 2 L/kg

**Q.** And the bioavailability [8]?
**A.** 16%

**Q.** What about the half-life [9] of the same compound?
**A.** 2.8 h

**Q.** What about the AUC(0-inf) [10] of the same compound?
**A.** 1890 ng·h/mL

**Q.** And the Cmax [11]?
**A.** 255 ng/mL

**Q.** And the Stability [12]?
**A.** Stable

**Q.** And the INH [13]?
**A.** > 10 µM

**Q.** And the inhibition [14]?
**A.** > 90%

**Q.** And the inhibition [15]?
**A.** > 90%

**Q.** And the inhibition [16]?
**A.** 100%

**Q.** And the inhibition [17]?
**A.** > 90%

**Q.** What about the inhibition [18] of the same compound?
**A.** > 90%

**Q.** And the inhibition [19]?
**A.** > 90%

**Q.** What about the inhibition [20] of the same compound?
**A.** > 90%

**Q.** And the IC50 [21]?
**A.** > 1000 nM

**Q.** What about the IC50 (Insulin receptor) of the same compound?
**A.** > 1000 nM

**Q.** What about the inhibition [22] of the same compound?
**A.** inactive

**Q.** And the inhibition [23]?
**A.** inactive

**Q.** What about the inhibition [24] of the same compound?
**A.** inactive

**Q.** What about the inhibition [25] of the same compound?
**A.** inactive

**Q.** And the inhibition [26]?
**A.** inactive

**Q.** What about the inhibition [27] of the same compound?
**A.** inactive

**Q.** And the IC50 [28]?
**A.** 28 nM

**Q.** And the IC50 [29]?
**A.** 5 nM

**Q.** What about the EC50 (Aorta) of the same compound?
**A.** 1.2 nM

**Q.** And the EC50 (HUVEC [30])?
**A.** 0.6 nM

**Q.** What about the Activity (HUVEC [31]) of the same compound?
**A.** Non-toxic

**Q.** And the inhibition in vivo at 1 mg/kg (SVR [32])?
**A.** 52%

**Q.** And the inhibition in vivo at 3 mg/kg (SVR [33])?
**A.** 63%

**Q.** What about the Activity (SVR [34]) of the same compound?
**A.** 10%

**Q.** And the concentration at 2 h [35]?
**A.** 900 nM

**Q.** And the concentration at 2 h [36]?
**A.** 158 nM

**Q.** With `CC(C)Cn1c2ccc(C3CCCCO3)cc2c2c3c(c4c(c21)CCc1nn(C)cc1-4)C(=O)NC3` (racemic) as the compound, how does the inhibition [1] read?
**A.** inactive

**Q.** And the IC50 (Angiopoietin-1 receptor)?
**A.** 3 nM

**Q.** And the IC50 [2]?
**A.** 11 nM

**Q.** What about the IC50 [3] of the same compound?
**A.** 10 nM

**Q.** What about the half-life [4] of the same compound?
**A.** 1.9 h

**Q.** What about the clearance [5] of the same compound?
**A.** 20 mL/min/kg

**Q.** And the AUC(0-inf) [6]?
**A.** 862 ng·h/mL

**Q.** And the Vd [7]?
**A.** 3.2 L/kg

**Q.** And the bioavailability [8]?
**A.** 15%

**Q.** What about the half-life [9] of the same compound?
**A.** 3.9 h

**Q.** What about the AUC(0-inf) [10] of the same compound?
**A.** 1260 ng·h/mL

**Q.** And the Cmax [11]?
**A.** 154 ng/mL

**Q.** What about the Stability [12] of the same compound?
**A.** Stable

**Q.** What about the INH [13] of the same compound?
**A.** > 10 µM

**Q.** And the inhibition [14]?
**A.** > 90%

**Q.** And the inhibition [15]?
**A.** > 90%

**Q.** And the inhibition [16]?
**A.** 100%

**Q.** And the inhibition [17]?
**A.** > 90%

**Q.** What about the inhibition [18] of the same compound?
**A.** > 90%

**Q.** What about the inhibition [19] of the same compound?
**A.** > 90%

**Q.** And the inhibition [20]?
**A.** > 90%

**Q.** And the IC50 [21]?
**A.** > 1000 nM

**Q.** What about the IC50 (Insulin receptor) of the same compound?
**A.** > 1000 nM

**Q.** And the inhibition [22]?
**A.** inactive

**Q.** And the inhibition [23]?
**A.** inactive

**Q.** And the inhibition [24]?
**A.** inactive

**Q.** And the inhibition [25]?
**A.** inactive

**Q.** What about the inhibition [26] of the same compound?
**A.** inactive

**Q.** And the inhibition [27]?
**A.** inactive

**Q.** And the IC50 [28]?
**A.** 16 nM

**Q.** And the IC50 [29]?
**A.** 9 nM

**Q.** What about the EC50 (Aorta) of the same compound?
**A.** 0.9 nM

**Q.** And the EC50 (HUVEC [30])?
**A.** 2 nM

**Q.** And the Activity (HUVEC [31])?
**A.** Non-toxic

**Q.** What about the inhibition in vivo at 1 mg/kg (SVR [32]) of the same compound?
**A.** 59%

**Q.** And the Activity (SVR [37])?
**A.** 10%

**Q.** What about the Activity (SVR [38]) of the same compound?
**A.** 10%

**Q.** And the inhibition in vivo at 3 mg/kg (SVR [33])?
**A.** 61%

**Q.** What about the Activity (SVR [34]) of the same compound?
**A.** 10%

**Q.** And the concentration at 2 h [35]?
**A.** 950 nM

**Q.** And the concentration at 2 h [36]?
**A.** 321 nM
